Measurements reported in patent publication US10294202B2, “Pyrrolidinones as herbicides” (FMC Corporation, priority 2013, dated 2019).

Tests used:
pigweed = assay: Test C pre-/postemergence herbicide test; format: in vivo, Amaranthus retroflexus
Method in brief: (§1)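 Two application timings ran in parallel with identically formulated test chemicals (non-phytotoxic solvent, surfactant included): spray on seeded loam–sand soil, and spray on emerged plants 2 to 18 cm high. Evaluation at 13 to 15 days compared each species with controls, rated from 0 up to 100.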

wheat = assay: Test A pre-/postemergence herbicide test; format: in vivo, Triticum aestivum; conditions: Postemergence
Method in brief: (§2)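 Directed soil spray to seeded pots (preemergence) or spray onto one- to two-leaf seedlings 2–10 cm tall (postemergence); loam/sand substrate throughout. Evaluated visually after about 10 days against untreated plants, 0 = no effect, 100 = complete control.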

oilseed rape = assay: Test C pre-/postemergence herbicide test; format: in vivo, Brassica napus
Method in brief: as §1

ducksalad = assay: Test B flooded paddy test; format: in vivo, Heteranthera limosa; conditions: 500 g ai/ha, Flood; scale of 0 to 100 where 0 is no effect and 100 is complete control
Method in brief: (§3)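 Scoring: visual, compared with untreated controls, 0 = no effect through 100 = complete control, taken 13 to 15 days after treatment in the greenhouse. Compounds had been added to paddy water over soil flooded 3 cm deep at the plants' 2-leaf stage.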

blackgrass = assay: Test C pre-/postemergence herbicide test; format: in vivo, Alopecurus myosuroides
Method in brief: as §1

lambsquarters = assay: Test C pre-/postemergence herbicide test; format: in vivo, Chenopodium album
Method in brief: as §1

crabgrass, large = assay: Test C pre-/postemergence herbicide test; format: in vivo, Digitaria sanguinalis
Method in brief: as §1

nutsedge, yellow = assay: Test C pre-/postemergence herbicide test; format: in vivo, Cyperus esculentus
Method in brief: as §1

giant foxtail = assay: Test A pre-/postemergence herbicide test; format: in vivo, Setaria faberii
Method in brief: as §2

rice = assay: Test B flooded paddy test; format: in vivo, Oryza sativa; conditions: 500 g ai/ha, Flood; scale of 0 to 100 where 0 is no effect and 100 is complete control
Method in brief: as §3

barnyardgrass [1] = assay: Test B flooded paddy test; format: in vivo, Echinochloa crus-galli; conditions: 500 g ai/ha, Flood; scale of 0 to 100 where 0 is no effect and 100 is complete control
Method in brief: as §3

barnyardgrass [2] = assay: Test C pre-/postemergence herbicide test; format: in vivo, Echinochloa crus-galli
Method in brief: as §1

[3] = Postemergence, 31 g ai/ha, scale 0 to 100 (0 no effect, 100 complete control)
[4] = Postemergence, 62 g ai/ha, scale 0 (no effect) to 100 (complete control)
[5] = Postemergence, 125 g ai/ha, scale 0 to 100 (0 no effect, 100 complete control)
[6] = Postemergence, 250 g ai/ha, scale 0 to 100 (0 no effect, 100 complete control)
[7] = Preemergence, 31 g ai/ha, scale 0 to 100, 0 is no effect and 100 is complete control
[8] = Preemergence, 62 g ai/ha, scale 0 to 100 (0 no effect, 100 complete control)
[9] = Preemergence, 125 g ai/ha, scale 0 to 100

Structure (SMILES): O=C1NCC(c2cccc(OC(F)F)c2)C1C(=O)Nc1ccc(F)c(F)c1F (stereo not shown) [Compound 325]
- Plant response rating, Pigweed (pigweed; [3]): 40
- Plant response rating, Pigweed (pigweed; [4]): 55
- Plant response rating, Pigweed (pigweed; [5]): 50
- Plant response rating, Pigweed (pigweed; [6]): 65
- Pigweed plant response rating (pigweed; [7]): 65
- Pigweed plant response rating (pigweed; [8]): 65
- Plant response rating, Pigweed (pigweed; [9]): 75
- Plant response rating, Wheat (wheat; 125 g ai/ha, visual rating on 0 to 100 scale (0 no effect, 100 complete control), approx. 10 days): 60
- Plant response rating, Wheat (wheat; 500 g ai/ha, 0 to 100 scale (0 no effect, 100 complete control)): 80
- Plant response rating, Oilseed Rape (oilseed rape; [3]): 0
- Plant response rating, Oilseed Rape (oilseed rape; [4]): 0
- Plant response rating, Oilseed Rape (oilseed rape; [5]): 50
- Plant response rating, Oilseed Rape (oilseed rape; [6]): 60
- Oilseed Rape plant response rating (oilseed rape; [7]): 0
- Oilseed Rape plant response rating (oilseed rape; [8]): 65
- Plant response rating, Oilseed Rape (oilseed rape; [9]): 85
- Plant response rating (scale of 0 to 100), Oilseed Rape (oilseed rape; Preemergence, 250 g ai/ha): 90
- Plant response rating, Ducksalad (ducksalad): 100
- Plant response rating, Blackgrass (blackgrass; [3]): 0
- Plant response rating, Blackgrass (blackgrass; [4]): 0
- Plant response rating, Blackgrass (blackgrass; [5]): 0
- Plant response rating, Blackgrass (blackgrass; [6]): 35
- Blackgrass plant response rating (blackgrass; [7]): 5
- Blackgrass plant response rating (blackgrass; [8]): 50
- Plant response rating, Blackgrass (blackgrass; [9]): 70
- Plant response rating (scale of 0 to 100), Blackgrass (blackgrass; Preemergence, 250 g ai/ha): 85
- Plant response rating, Lambsquarters (lambsquarters; [3]): 20
- Plant response rating, Lambsquarters (lambsquarters; [4]): 45
- Plant response rating, Lambsquarters (lambsquarters; [5]): 70
- Plant response rating, Lambsquarters (lambsquarters; [6]): 65
- Lambsquarters plant response rating (lambsquarters; [7]): 45
- Lambsquarters plant response rating (lambsquarters; [8]): 70
- Plant response rating, Lambsquarters (lambsquarters; [9]): 80
- Plant response rating (scale of 0 to 100), Lambsquarters (lambsquarters; Preemergence, 250 g ai/ha): 80
- Plant response rating, Crabgrass, Large (crabgrass, large; [3]): 55
- Plant response rating, Crabgrass, Large (crabgrass, large; [4]): 65
- Plant response rating, Crabgrass, Large (crabgrass, large; [5]): 65
- Plant response rating, Crabgrass, Large (crabgrass, large; [6]): 85
- Crabgrass, Large plant response rating (crabgrass, large; [7]): 95
- Crabgrass, Large plant response rating (crabgrass, large; [8]): 95
- Plant response rating, Crabgrass, Large (crabgrass, large; [9]): 95
- Plant response rating (scale of 0 to 100), Crabgrass, Large (crabgrass, large; Preemergence, 250 g ai/ha): 100
- Plant response rating, Nutsedge, Yellow (nutsedge, yellow; [3]): 0
- Plant response rating, Nutsedge, Yellow (nutsedge, yellow; [4]): 0
- Plant response rating, Nutsedge, Yellow (nutsedge, yellow; [5]): 0
- Plant response rating, Nutsedge, Yellow (nutsedge, yellow; [6]): 0
- Nutsedge, Yellow plant response rating (nutsedge, yellow; [7]): 0
- Nutsedge, Yellow plant response rating (nutsedge, yellow; [8]): 0
- Plant response rating, Nutsedge, Yellow (nutsedge, yellow; [9]): 0
- Plant response rating (scale of 0 to 100), Nutsedge, Yellow (nutsedge, yellow; Preemergence, 250 g ai/ha): 0
- Plant response rating, Foxtail, Giant (giant foxtail; Postemergence, 125 g ai/ha, visual rating on 0 to 100 scale (0 no effect, 100 complete control), approx. 10 days): 90
- Plant response rating, Foxtail, Giant (giant foxtail; Postemergence, 500 g ai/ha, 0 to 100 scale (0 no effect, 100 complete control)): 90
- Plant response rating, Foxtail, Giant (giant foxtail; Preemergence, 125 g ai/ha, 0 to 100 scale where 0 is no effect and 100 is complete control): 90
- Foxtail, Giant plant response rating (giant foxtail; Preemergence, 500 g ai/ha, visual rating on 0 to 100 scale (0 no effect, 100 complete control)): 90
- Plant response rating, Rice (rice): 20
- Plant response rating, Barnyardgrass (barnyardgrass [1]): 70
- Plant response rating, Barnyardgrass (barnyardgrass [2]; [3]): 10
- Plant response rating, Barnyardgrass (barnyardgrass [2]; [4]): 25
- Plant response rating, Barnyardgrass (barnyardgrass [2]; [5]): 70
- Plant response rating, Barnyardgrass (barnyardgrass [2]; [6]): 80
- Barnyardgrass plant response rating (barnyardgrass [2]; [7]): 85
- Barnyardgrass plant response rating (barnyardgrass [2]; [8]): 90
- Plant response rating, Barnyardgrass (barnyardgrass [2]; Preemergence, 125 g ai/ha, scale 0 to 100 (0 no effect, 100 complete control)): 95
- Plant response rating (scale of 0 to 100; 0 is no effect, 100 is complete control), Barnyardgrass (barnyardgrass [2]; Preemergence, 250 g ai/ha): 95
